The subject of one assay is E. coli O157:H7 (EHEC). The assay can be described thus: Planktonic antibiotic killing assay. It counts as cell-based, Escherichia coli. Conditions: MMC 10 μg/mL, 3 h; for cell viability after treatment: rich medium (buffered LB). On the procedure: In order to obtain exponential and mid-stationary phase cultures in LB, buffered LB or TSB, overnight cultures (16 h) were diluted 1:1000 in fresh medium and grown to the desired turbidity (i.e., a turbidity below 2 at 600 nm for exponential phase and a turbidity of 3 to 4 at 600 nm for mid-stationary phase). Late-stationary phase cultures in LB or buffered LB were obtained by growing overnight cultures (16 h). In order to obtain exponential and late-stationary phase cultures in M9-glucose, overnight cultures (16 h) were washed diluted 1:1000 in M9-glucose and grown for the desired period of time (i.e., a turbidity of 0.4 at 600 nm for exponential phase and 24 h of growth for late-stationary phase). Anaerobically grown cultures were maintained with ˜20% CO2, ˜79% N2, and ˜1% H2. In order to obtain rifampicin-induced persister cultures in buffered LB, overnight cultures (16 h) were diluted 1:1000 in fresh medium and grown to a turbidity of 0.8 at 600 nm. Cultures were exposed to rifampicin (100 μg/mL) for 30 min, centrifuged, and resuspended in fresh medium to remove the rifampicin.

Assay [1] relates to gDNA (rrsG and murB) of E. coli K-12 BW25113/pCA24N. The assay can be described thus: qPCR of gDNA crosslinking in cells (in vivo). It counts as cell-based, Escherichia coli. Conditions: MMC 100 μg/mL 1 h. On the procedure: Overnight cultures (16 h) of E. coli K-12 BW25113/pCA24N grown in LB were diluted 1:1000 in buffered LB and grown to the desired turbidity. For exponential phase cells (i.e., non-persisters), cultures were grown to a turbidity of 2.0 at 600 nm. For rifampicin-induced persisters, cultures were grown to a turbidity of 0.8 at 600 nm, exposed to rifampicin (100 μg/mL) for 30 min, centrifuged, and resuspended in fresh medium to remove the rifampicin. Non-persister and rifampicin-induced persister cultures were treated with MMC (100 μg/mL) for 1 h. gDNA was extracted, using an UltraClean Microbial DNA Isolation Kit (MO BIO Laboratories, Carlsbad, Calif., USA), from samples taken before and after MMC treatment and 100 ng of DNA was used for qPCR of rrsG and murB using the GoTaq qPCR Master Mix (Promega, Madison, Wis., USA) and the StepOne Real-Time PCR System (Applied Biosystems, Foster City, Calif., USA) (primers are shown in Table 2). As a positive control, 3 μg of gDNA from BW25113 non-persisters was crosslinked in vitro with 500 μg/mL (1.5 mM) MMC in 0.2 mM EDTA, 50 mM NaCl, and 5 mM Tris (pH=7.6) with Na2S2O4 added six times at 10 min intervals to reach a final concentration of 2.25 mM (1.5× molarity of MMC). The in vitro crosslinking reaction was performed anaerobically on ice and the reaction was stopped by exposure to air.
In general terms: Quantitative PCR measures a nucleic acid by following its amplification.

The next assay deals with E. coli K-12 cells. The assay can be described thus: Test of DNA crosslinking compounds for antimicrobial activity. Type of assay: cell-based, Escherichia coli. Particulars: 100 μg/mL. As for the experimental part:
Stocks of cisplatin (2 mg/mL, Sigma-Aldrich, St. Louis, Mo., USA) were prepared in 0.1M NaClO4 and MMC (0.5 mg/mL, Fisher Scientific, Pittsburgh, Pa., USA) was prepared in water. Stocks of busulfan (2 mg/mL, Cayman Chemical, Ann Arbor, Mich., USA), melphalan (2 mg/mL, Cayman Chemical), dynemicin A (5 mg/mL, AdooQ, Irvine, Calif., USA), and tirapazamine (0.5 mg/mL, Sigma-Aldrich) were prepared in dimethylsulfoxide, the stock of cyclophosphamide (0.5 mg/mL, Cayman Chemical) was prepared in water, and the stock of carmustine (214 mg/mL, Enzo Life Sciences, Farmingdale, N.Y., USA) was prepared in ethanol.
In this Example we tested seven other DNA crosslinking compounds: busulfan (100 μg/mL), carmustine (100 μg/mL) cisplatin (100 μg/mL), cyclophosphamide (100 μg/mL), dynemicin A (200 μg/mL), melphalan (100 μg/mL), and tirapazamine (10 μg/mL).

In assay [2] the test system is E. coli K-12 persister cells. The assay can be described thus: Rifampicin-induced persister cell killing assay. It counts as cell-based, Escherichia coli. On the procedure:
Rifampicin-pretreatment was used to convert nearly all the E. coli exponentially-growing cells to persister cells. In brief, overnight cultures (16 h) of E. coli BW25113 were diluted 1:1000 in buffered LB and grown to a turbidity of 0.8 at 600 nm (250 mL flask, 250 rpm). Cultures were treated with rifampicin (100 μg/mL) for 30 min (250 mL flask, 250 rpm), centrifuged, and resuspended in fresh medium to remove the rifampicin. A 1 mL culture was used for a drop assay to check cell viability at 0 h. […] After 3 h, 1 mL of culture was centrifuged at 10,000 rpm for 3 min, the supernatant was discarded, the cells were resuspended in 1 mL of normal saline, and the cell suspension was serially diluted for a drop assay to check cell viability. In addition, 1 mL samples were centrifuged, and the cell pellet resuspended in 150 μL of normal saline and spread on LB agar.
To test whether lower concentrations than 500 μg/mL of cisplatin generate resistant mutants, 5 mL cultures of rifampicin-induced persister cells were treated with 200 μg/mL of cisplatin and cells were enumerated by the drop assay using LB agar, LB agar with 200 μg/mL of cisplatin (LBCP200), and LB agar with 500 μg/mL of cisplatin (LBCP500).

The next assay concerns DNA. Conditions: Eastman 1987; cited from earlier work.
Where [3] appears, read: treatment with 2×MIC (200 μg/mL) of cisplatin.

Where “and” joins values, the source holds several entries; their conditions need not be identical. Equal values may be shown once. A value given as a limit tells only on which side of the number the result lay.

Regarding `CO[C@@]12[C@H](COC(N)=O)C3=C(C(=O)C(C)=C(N)C3=O)N1C[C@@H]1N[C@@H]12` [MMC, mitomycin C], the “cell viability after treatment” value in the assay on E. coli O157:H7 (EHEC) (exponential phase) and in the assay on E. coli O157:H7 (EHEC) (mid-stationary phase) was “eradicating” in each case. Further, the cells survived result in the assay on E. coli O157:H7 (EHEC) (late-stationary phase, M9-glucose, ciprofloxacin 5 μg/mL) is “eradicated”. The “Fold Change in amplifiable DNA” value in assay [1] (Non-persisters, murB) is on record as −5.13±0.14 fold; in assay [1] (Non-persisters, rrsG) it was −5.95±0.20 fold; in assay [1] (Persisters, murB), −5.99±0.50 fold; in assay [1] (Persisters, rrsG) it was −5.01±0.51 fold.

Take `N.N.[Cl][Pt][Cl]` [cisplatin, cis-diamminodichloroplatinum(II)]: the antimicrobial activity result in the assay on E. coli K-12 cells is reported as “exhibited antimicrobial activity”. Also, in assay [2] (after the 3 h cisplatin treatment (500 μg/mL)), the “colonies from 1 mL samples” value is 37±5 colonies. For the same compound, the “number of persister cells after treatment (drop assay)” value in assay [2] (cisplatin 500 μg/mL, 3 h, limit of detection) is on record as below 100 cells/mL. In assay [2] (setting [3]), the “colonies on LBCP500 agar plates (spontaneous resistant mutants)” value is listed as “no colonies were found” and the “survivors on LBCP200 agar plates” value was 0.08%. Further, in the assay on DNA, the “intrastrand crosslinks at AG sequences” value is 17-19% and 17 to 19%; the “intrastrand crosslinks at GNG sequences” value was below 8%; the “intrastrand crosslinks at adjacent guanines” value was 54-65% and 54 to 65%.

Values taken from patent US10238689B2, “Methods for combating bacterial infections by killing persister cells with mitomycin C and/or cisplatin” (THE PENN STATE RESEARCH FOUNDATION, priority 2015, dated 2019).
